The results in this text go back to patent US6080724A, “Peptides which can be used as vectors for the intracellular addressing of active molecules” (Centre National de la Recherche Scientifique (CNRS), priority 1995, dated 2000).

The test concerns E15 cortex and striatum cells. The experiment in a line: Cellular localization of biotinylated peptides by confocal microscopy (fluorescent streptavidin). In kind it is cell-based. As to conditions: 2 h. As to the method: The cells were then washed, fixed and stained with fluorescent streptavidin.
The entry of the peptides of Table II was tested only by confocal microscopy; indeed, the absence of lysine in these peptides makes the attachments very difficult and therefore requires a very rapid observation which is incompatible with transfers onto filters or ELISA tests (multiple washes).
The E15 cortex and striatum cells are cultured on glass coverslips at a density of 25,000 cells/cm^2 for 2 days. The peptides are all added at a final concentration of 20 μM. […] The sections observed by confocal microscopy are presented in FIGS. 3 (37° C.) and 4 (4° C.). The cells which have integrated the peptide appear fluorescent, on a black background.
E15 cortex and striatum cells are cultured on glass coverslips at a density of 25,000 cells/cm^2 for 2 days. The peptides are added at a final concentration of 20 μM for peptide 43-58 and of 2 μM for the others and the cells are incubated for 2 h at 37° C. […] The results are illustrated in FIG. 6.

For the substance “Biot-Apa-Arg-Gln-Pro-Lys-Ile-Trp-Phe-Pro-Asn-Arg-Arg-Lys-Pro-Trp-Lys-Lys [3Pro]”, under “20 μM, 37° C. and 4° C.”, the internalization entry was “does not prevent internalization” and the nuclear addressing entry is “appears to interfere with nuclear addressing”.
Regarding “Biot-Apa-Arg-Leu-Arg-Arg-Leu-Leu-Arg-Arg-Leu-Leu-Arg-Arg-Leu-Arg-Arg [L/R]”, under “2 μM, 37° C., streptavidin-FITC”, the “internalization and cytoplasmic and nuclear addressing (localization)” value was “found in a fraction which is apparently of the vesicular type, probably of endocytic character”.
